What is called IC50 is the midpoint of a concentration-inhibition curve. The low end stands for inhibition by little substance, the high end for a need for much substance.

Structures are written as SMILES. Where only a bound is given, the exact number is not on record here.

Chain of BRM (P51531 whole entry): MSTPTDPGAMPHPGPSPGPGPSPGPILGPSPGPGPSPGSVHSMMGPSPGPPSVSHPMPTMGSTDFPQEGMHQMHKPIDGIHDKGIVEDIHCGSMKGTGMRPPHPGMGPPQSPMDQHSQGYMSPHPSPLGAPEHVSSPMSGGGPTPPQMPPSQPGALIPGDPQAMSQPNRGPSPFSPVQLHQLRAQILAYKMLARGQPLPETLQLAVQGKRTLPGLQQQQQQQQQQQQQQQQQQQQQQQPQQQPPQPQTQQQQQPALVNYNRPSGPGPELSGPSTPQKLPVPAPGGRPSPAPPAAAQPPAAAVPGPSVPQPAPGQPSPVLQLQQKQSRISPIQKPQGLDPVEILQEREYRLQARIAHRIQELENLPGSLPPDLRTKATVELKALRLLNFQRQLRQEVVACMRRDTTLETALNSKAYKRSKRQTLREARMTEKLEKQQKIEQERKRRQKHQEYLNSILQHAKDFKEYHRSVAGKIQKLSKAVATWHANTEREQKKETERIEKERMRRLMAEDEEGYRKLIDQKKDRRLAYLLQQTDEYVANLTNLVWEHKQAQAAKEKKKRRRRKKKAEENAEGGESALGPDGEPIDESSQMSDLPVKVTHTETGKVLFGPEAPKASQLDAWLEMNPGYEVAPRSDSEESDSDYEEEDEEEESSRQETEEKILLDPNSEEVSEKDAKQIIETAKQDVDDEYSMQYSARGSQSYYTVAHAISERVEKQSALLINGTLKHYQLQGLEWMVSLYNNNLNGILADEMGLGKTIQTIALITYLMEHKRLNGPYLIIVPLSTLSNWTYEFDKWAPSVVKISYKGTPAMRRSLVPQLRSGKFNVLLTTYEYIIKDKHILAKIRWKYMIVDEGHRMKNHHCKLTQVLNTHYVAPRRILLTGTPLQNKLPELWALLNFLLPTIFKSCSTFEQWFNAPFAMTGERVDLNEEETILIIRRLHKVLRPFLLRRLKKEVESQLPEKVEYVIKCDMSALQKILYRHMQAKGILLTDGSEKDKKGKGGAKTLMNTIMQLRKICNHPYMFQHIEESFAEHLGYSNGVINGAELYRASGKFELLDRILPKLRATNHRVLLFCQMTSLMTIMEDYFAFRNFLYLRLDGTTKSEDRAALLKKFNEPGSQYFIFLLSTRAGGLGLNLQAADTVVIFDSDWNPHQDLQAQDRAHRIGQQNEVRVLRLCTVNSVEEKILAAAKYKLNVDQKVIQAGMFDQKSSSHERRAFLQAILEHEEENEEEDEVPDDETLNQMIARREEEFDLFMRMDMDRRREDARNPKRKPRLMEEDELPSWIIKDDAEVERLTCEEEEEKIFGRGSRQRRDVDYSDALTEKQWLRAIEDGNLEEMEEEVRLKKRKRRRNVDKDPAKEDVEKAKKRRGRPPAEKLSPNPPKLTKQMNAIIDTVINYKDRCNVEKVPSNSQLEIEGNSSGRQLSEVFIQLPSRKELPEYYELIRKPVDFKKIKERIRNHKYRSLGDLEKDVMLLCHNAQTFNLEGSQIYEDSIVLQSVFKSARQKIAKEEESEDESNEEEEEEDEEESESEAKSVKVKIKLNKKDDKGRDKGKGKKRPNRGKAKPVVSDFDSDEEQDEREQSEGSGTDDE

One assay deals with BRG-1 (Homo sapiens, UniProt P51532). The assay can be described thus: ATPase catalytic activity assay (ADP-Glo), BRG-1.
Chain of BRG-1 (P51532 whole entry): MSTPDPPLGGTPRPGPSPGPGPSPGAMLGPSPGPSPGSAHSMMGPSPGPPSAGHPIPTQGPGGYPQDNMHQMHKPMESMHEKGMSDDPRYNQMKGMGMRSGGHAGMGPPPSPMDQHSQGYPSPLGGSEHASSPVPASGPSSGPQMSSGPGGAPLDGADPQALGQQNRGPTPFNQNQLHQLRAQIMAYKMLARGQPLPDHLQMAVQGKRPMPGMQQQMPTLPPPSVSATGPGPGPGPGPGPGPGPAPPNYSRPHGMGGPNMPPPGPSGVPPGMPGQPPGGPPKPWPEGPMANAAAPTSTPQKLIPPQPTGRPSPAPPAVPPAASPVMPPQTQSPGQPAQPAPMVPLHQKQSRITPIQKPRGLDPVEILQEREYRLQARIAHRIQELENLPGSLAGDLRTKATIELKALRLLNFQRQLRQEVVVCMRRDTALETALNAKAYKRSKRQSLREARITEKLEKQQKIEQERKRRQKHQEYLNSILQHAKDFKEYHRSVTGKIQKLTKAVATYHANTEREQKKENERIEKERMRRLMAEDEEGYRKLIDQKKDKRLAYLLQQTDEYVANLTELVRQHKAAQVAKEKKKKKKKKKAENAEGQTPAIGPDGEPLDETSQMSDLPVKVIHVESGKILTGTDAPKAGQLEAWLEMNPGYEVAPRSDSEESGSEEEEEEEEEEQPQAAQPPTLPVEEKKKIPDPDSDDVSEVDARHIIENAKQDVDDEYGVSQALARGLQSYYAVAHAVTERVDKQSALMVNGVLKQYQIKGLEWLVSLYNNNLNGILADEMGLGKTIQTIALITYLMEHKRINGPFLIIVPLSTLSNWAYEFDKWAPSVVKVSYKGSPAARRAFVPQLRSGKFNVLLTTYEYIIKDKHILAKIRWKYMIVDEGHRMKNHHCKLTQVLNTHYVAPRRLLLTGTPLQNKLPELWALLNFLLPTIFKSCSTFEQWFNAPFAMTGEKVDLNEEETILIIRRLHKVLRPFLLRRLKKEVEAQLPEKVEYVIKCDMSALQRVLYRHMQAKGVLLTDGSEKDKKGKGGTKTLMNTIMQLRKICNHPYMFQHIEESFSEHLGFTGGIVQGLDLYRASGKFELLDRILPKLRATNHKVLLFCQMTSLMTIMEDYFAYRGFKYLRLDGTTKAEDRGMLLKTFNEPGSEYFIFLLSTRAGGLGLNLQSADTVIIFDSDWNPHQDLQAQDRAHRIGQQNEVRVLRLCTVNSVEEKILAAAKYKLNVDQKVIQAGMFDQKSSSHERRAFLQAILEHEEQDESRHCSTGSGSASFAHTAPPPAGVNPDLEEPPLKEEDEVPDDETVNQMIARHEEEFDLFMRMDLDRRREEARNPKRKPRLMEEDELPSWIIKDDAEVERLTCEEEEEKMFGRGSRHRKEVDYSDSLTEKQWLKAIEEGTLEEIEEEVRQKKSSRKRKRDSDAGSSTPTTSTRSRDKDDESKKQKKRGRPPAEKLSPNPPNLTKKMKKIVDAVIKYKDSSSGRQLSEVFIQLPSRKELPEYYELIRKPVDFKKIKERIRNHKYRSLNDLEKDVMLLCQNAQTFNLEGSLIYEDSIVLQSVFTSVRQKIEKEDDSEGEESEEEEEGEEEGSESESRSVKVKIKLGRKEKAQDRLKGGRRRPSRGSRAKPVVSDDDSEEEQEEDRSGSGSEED
Details: not given
Molecule `C[C@@]1(C#N)COCc2ccc(C(=O)NCc3cc4nc(-n5cc(F)cn5)ccc4cn3)cc21` [Compound 411] gave an IC50 of 500 to 1000 nM.

`C[C@@]1(C#N)COCc2ccc(C(=O)NCc3cc4cc(N5CCn6ncc(C(F)F)c6C5)ccc4nn3)cc21` [Compound 219] yielded a half-inhibitory concentration (IC50) of 500 to 1000 nM.

Take `COc1c(F)cc(F)cc1-c1ccc2cnc(CNC(=O)c3ccc4c(c3)[C@](C)(C#N)COC4)cc2n1` [Compound 515]: the IC50 lay in the range of 500 to 1000 nM.

With `C[C@@]1(C#N)COCc2ccc(C(=O)NCc3cc4cc(-c5ccccc5)ncc4cn3)cc21` [Compound 508], the concentration for half-maximal inhibition (IC50) is over 1000 nM.

`COC1(c2cccc(-c3ccc4cnc(CNC(=O)c5ccc6c(c5)[C@](C)(C#N)COC6)cc4n3)c2)COC1` [Compound 418]: the IC50 is over 1000 nM.

As to `C[C@@]1(C#N)COCc2ccc(C(=O)NCc3cc4nc(-c5ccnc(N6CCC6)n5)sc4cn3)cc21` [Compound 348], the IC50 lay within 500 to 1000 nM.

In the case of `C[C@@]1(C#N)COCc2ccc(C(=O)NCc3cc4cc(-n5cc(F)c(N6CCC6)n5)ccc4nn3)cc21` [Compound 142], the concentration for half-maximal inhibition (IC50) lay within 100 to 500 nM.

In turn, `C[C@@H]1CN(c2cccc([C@H]3C[C@H](c4ccnc(CNC(=O)c5ccc6c(c5)[C@](C)(C#N)COC6)c4)C3)n2)C[C@H](C)O1` [Compound 81] gave an IC50 of 100 to 500 nM.

Take `COc1nn(C)cc1-c1ccc2cnc(CNC(=O)c3ccc4c(c3)[C@](C)(F)COC4)cc2n1` [Compound 343]: the IC50 fell in the range of 500 to 1000 nM.

In the case of `C[C@@]1(C#N)COCc2ccc(C(=O)NCc3cc4nc(-c5cccc(C(=O)N6CCC6)c5)ccc4cn3)cc21` [Compound 484], the IC50 fell in the range of 500 to 1000 nM.

`O=C(NCc1cc2nc(-c3cncc(C4CC4)n3)ccc2cn1)c1cnc2c(c1)[C@@](F)(C(F)F)CCO2` [Compound 243] showed an IC50 of over 1000 nM.

In turn, `C[C@@]1(C#N)COCc2ccc(C(=O)NCc3cc4cc(-c5ccnc(N6CCC6)n5)cnc4cn3)cc21` [Compound 377] displayed an IC50 of 500 to 1000 nM.

Molecule `CNC(=O)c1cccc(-c2ccc3cnc(CNC(=O)c4ccc5c(c4)[C@](C)(C#N)COC5)cc3n2)c1` [Compound 483] returned an IC50 of 500 to 1000 nM.

Consider `COC(=O)c1cccc(/C=C/c2ccnc(CNC(=O)c3ccc4c(c3)[C@](C)(C#N)COC4)c2)c1` [Compound 26], for which the 50% inhibitory concentration (IC50) is 100 to 500 nM.

In turn, `C[C@@]1(C#N)COCc2ccc(C(=O)NCc3cc4nc(-c5ccc(C(F)F)cc5)ccc4cn3)cc21` [Compound 519] had a concentration for half-maximal inhibition (IC50) of 100 to 500 nM.

`Cn1cc2c(n1)CCN(c1ccc3cnc(CNC(=O)c4ccc5c(c4)[C@](C)(C#N)COC5)cc3n1)C2` [Compound 455] showed an IC50 of 500 to 1000 nM.

For the molecule `C[C@@]1(C#N)COCc2ccc(C(=O)NCc3cc4nc(-c5ccnc(N6CCOCC6)n5)ccc4cn3)cc21` [Compound 416], the concentration for half-maximal inhibition (IC50) was 100 to 500 nM.

The assay is the same for the next values; noted with them: 1 h, read-out: BRG1 Max % Inhibition, ADP-Glo, 30 nM BRG-1, 400 μM ATP.
Regarding `C[C@@]1(C#N)COCc2ccc(C(=O)NCc3cc4nc(-n5cc(F)cn5)ccc4cn3)cc21` [Compound 411], the Emax stood at 50%.

As for `C[C@@]1(C#N)COCc2ccc(C(=O)NCc3cc4cc(N5CCn6ncc(C(F)F)c6C5)ccc4nn3)cc21` [Compound 219], the Emax is 57%.

`COc1c(F)cc(F)cc1-c1ccc2cnc(CNC(=O)c3ccc4c(c3)[C@](C)(C#N)COC4)cc2n1` [Compound 515]: the Emax stood at 68%.

Take `C[C@@]1(C#N)COCc2ccc(C(=O)NCc3cc4cc(-c5ccccc5)ncc4cn3)cc21` [Compound 508]: the Emax worked out at 46%.

Consider `COC1(c2cccc(-c3ccc4cnc(CNC(=O)c5ccc6c(c5)[C@](C)(C#N)COC6)cc4n3)c2)COC1` [Compound 418], for which the Emax worked out at 51%.

As to `C[C@@]1(C#N)COCc2ccc(C(=O)NCc3cc4nc(-c5ccnc(N6CCC6)n5)sc4cn3)cc21` [Compound 348], the Emax came out at 72%.

As for `C[C@@]1(C#N)COCc2ccc(C(=O)NCc3cc4cc(-n5cc(F)c(N6CCC6)n5)ccc4nn3)cc21` [Compound 142], the Emax came to 88%.

For `C[C@@H]1CN(c2cccc([C@H]3C[C@H](c4ccnc(CNC(=O)c5ccc6c(c5)[C@](C)(C#N)COC6)c4)C3)n2)C[C@H](C)O1` [Compound 81], the Emax is 90%.

With `COc1nn(C)cc1-c1ccc2cnc(CNC(=O)c3ccc4c(c3)[C@](C)(F)COC4)cc2n1` [Compound 343], the Emax came out at 78%.

As for `C[C@@]1(C#N)COCc2ccc(C(=O)NCc3cc4nc(-c5cccc(C(=O)N6CCC6)c5)ccc4cn3)cc21` [Compound 484], the Emax was 77%.

Take `O=C(NCc1cc2nc(-c3cncc(C4CC4)n3)ccc2cn1)c1cnc2c(c1)[C@@](F)(C(F)F)CCO2` [Compound 243]: the Emax came out at 9%.

Consider `C[C@@]1(C#N)COCc2ccc(C(=O)NCc3cc4cc(-c5ccnc(N6CCC6)n5)cnc4cn3)cc21` [Compound 377], for which the Emax was found to be 89%.

`CNC(=O)c1cccc(-c2ccc3cnc(CNC(=O)c4ccc5c(c4)[C@](C)(C#N)COC5)cc3n2)c1` [Compound 483]: the Emax came to 72%.

With `COC(=O)c1cccc(/C=C/c2ccnc(CNC(=O)c3ccc4c(c3)[C@](C)(C#N)COC4)c2)c1` [Compound 26], the Emax turned out to be 90%.

As to `C[C@@]1(C#N)COCc2ccc(C(=O)NCc3cc4nc(-c5ccc(C(F)F)cc5)ccc4cn3)cc21` [Compound 519], the Emax was 90%.

On to `Cn1cc2c(n1)CCN(c1ccc3cnc(CNC(=O)c4ccc5c(c4)[C@](C)(C#N)COC5)cc3n1)C2` [Compound 455], for which the Emax was found to be 75%.

With `C[C@@]1(C#N)COCc2ccc(C(=O)NCc3cc4nc(-c5ccnc(N6CCOCC6)n5)ccc4cn3)cc21` [Compound 416], the Emax is 95%.

The next assay addresses BRM (Homo sapiens, UniProt P51531). As to the kind of experiment: ATPase catalytic activity assay (ADP-Glo), BRM. To be noted: 30 nM BRM, 400 μM ATP. A general note: ADP-Glo first removes unused ATP, then detects ADP through luciferase.
Regarding `C[C@@]1(C#N)COCc2ccc(C(=O)NCc3cc4nc(-n5cc(F)cn5)ccc4cn3)cc21` [Compound 411], the “BRM Max % Inhibition” value is given as 91%.

For `C[C@@]1(C#N)COCc2ccc(C(=O)NCc3cc4cc(N5CCn6ncc(C(F)F)c6C5)ccc4nn3)cc21` [Compound 219], the “BRM Max % Inhibition” value turned out to be 94%.

As for `COc1c(F)cc(F)cc1-c1ccc2cnc(CNC(=O)c3ccc4c(c3)[C@](C)(C#N)COC4)cc2n1` [Compound 515], the “BRM Max % Inhibition” value is given as 90%.

On to `C[C@@]1(C#N)COCc2ccc(C(=O)NCc3cc4cc(-c5ccccc5)ncc4cn3)cc21` [Compound 508], for which the “BRM Max % Inhibition” value is listed as 90%.

With `COC1(c2cccc(-c3ccc4cnc(CNC(=O)c5ccc6c(c5)[C@](C)(C#N)COC6)cc4n3)c2)COC1` [Compound 418], the “BRM Max % Inhibition” value is 90%.

Take `C[C@@]1(C#N)COCc2ccc(C(=O)NCc3cc4nc(-c5ccnc(N6CCC6)n5)sc4cn3)cc21` [Compound 348]: the “BRM Max % Inhibition” value came out at 99%.

Turning to `C[C@@]1(C#N)COCc2ccc(C(=O)NCc3cc4cc(-n5cc(F)c(N6CCC6)n5)ccc4nn3)cc21` [Compound 142], the “BRM Max % Inhibition” value was determined as 98%.

Regarding `C[C@@H]1CN(c2cccc([C@H]3C[C@H](c4ccnc(CNC(=O)c5ccc6c(c5)[C@](C)(C#N)COC6)c4)C3)n2)C[C@H](C)O1` [Compound 81], the “BRM Max % Inhibition” value was determined as 98%.

For the molecule `COc1nn(C)cc1-c1ccc2cnc(CNC(=O)c3ccc4c(c3)[C@](C)(F)COC4)cc2n1` [Compound 343], the “BRM Max % Inhibition” value amounted to 101%.

On to `C[C@@]1(C#N)COCc2ccc(C(=O)NCc3cc4nc(-c5cccc(C(=O)N6CCC6)c5)ccc4cn3)cc21` [Compound 484], for which the “BRM Max % Inhibition” value is 96%.

In the case of `O=C(NCc1cc2nc(-c3cncc(C4CC4)n3)ccc2cn1)c1cnc2c(c1)[C@@](F)(C(F)F)CCO2` [Compound 243], the “BRM Max % Inhibition” value was determined as 81%.

In the case of `C[C@@]1(C#N)COCc2ccc(C(=O)NCc3cc4cc(-c5ccnc(N6CCC6)n5)cnc4cn3)cc21` [Compound 377], the “BRM Max % Inhibition” value worked out at 98%.

Consider `CNC(=O)c1cccc(-c2ccc3cnc(CNC(=O)c4ccc5c(c4)[C@](C)(C#N)COC5)cc3n2)c1` [Compound 483], for which the “BRM Max % Inhibition” value was 93%.

For the molecule `COC(=O)c1cccc(/C=C/c2ccnc(CNC(=O)c3ccc4c(c3)[C@](C)(C#N)COC4)c2)c1` [Compound 26], the “BRM Max % Inhibition” value worked out at 100%.

Take `C[C@@]1(C#N)COCc2ccc(C(=O)NCc3cc4nc(-c5ccc(C(F)F)cc5)ccc4cn3)cc21` [Compound 519]: the “BRM Max % Inhibition” value is listed as 96%.

Turning to `Cn1cc2c(n1)CCN(c1ccc3cnc(CNC(=O)c4ccc5c(c4)[C@](C)(C#N)COC5)cc3n1)C2` [Compound 455], the “BRM Max % Inhibition” value was 94%.

In the case of `C[C@@]1(C#N)COCc2ccc(C(=O)NCc3cc4nc(-c5ccnc(N6CCOCC6)n5)ccc4cn3)cc21` [Compound 416], the “BRM Max % Inhibition” value was found to be 99%.

Staying with this assay, now noted: BRM ATPase: IC50 (uM), 30 nM BRM, 400 μM ATP.
In the case of `C[C@@]1(C#N)COCc2ccc(C(=O)NCc3cc4nc(-n5cc(F)cn5)ccc4cn3)cc21` [Compound 411], the half-inhibitory concentration (IC50) lay within 0.1 to 0.5 µM.

`C[C@@]1(C#N)COCc2ccc(C(=O)NCc3cc4cc(N5CCn6ncc(C(F)F)c6C5)ccc4nn3)cc21` [Compound 219]: the IC50 lay within 0.1 to 0.5 µM.

Consider `COc1c(F)cc(F)cc1-c1ccc2cnc(CNC(=O)c3ccc4c(c3)[C@](C)(C#N)COC4)cc2n1` [Compound 515], for which the concentration for half-maximal inhibition (IC50) is 0.1 to 0.5 µM.

Molecule `C[C@@]1(C#N)COCc2ccc(C(=O)NCc3cc4cc(-c5ccccc5)ncc4cn3)cc21` [Compound 508] displayed a 50% inhibitory concentration (IC50) of 0.1 to 0.5 µM.

For the molecule `COC1(c2cccc(-c3ccc4cnc(CNC(=O)c5ccc6c(c5)[C@](C)(C#N)COC6)cc4n3)c2)COC1` [Compound 418], the IC50 was 0.1 to 0.5 µM.

For `C[C@@]1(C#N)COCc2ccc(C(=O)NCc3cc4nc(-c5ccnc(N6CCC6)n5)sc4cn3)cc21` [Compound 348], the IC50 is under 0.1 µM.

As to `C[C@@]1(C#N)COCc2ccc(C(=O)NCc3cc4cc(-n5cc(F)c(N6CCC6)n5)ccc4nn3)cc21` [Compound 142], the half-inhibitory concentration (IC50) is under 0.1 µM.

As for `C[C@@H]1CN(c2cccc([C@H]3C[C@H](c4ccnc(CNC(=O)c5ccc6c(c5)[C@](C)(C#N)COC6)c4)C3)n2)C[C@H](C)O1` [Compound 81], the half-maximal inhibitory concentration (IC50) was under 0.1 µM.

Regarding `COc1nn(C)cc1-c1ccc2cnc(CNC(=O)c3ccc4c(c3)[C@](C)(F)COC4)cc2n1` [Compound 343], the IC50 was under 0.1 µM.

As for `C[C@@]1(C#N)COCc2ccc(C(=O)NCc3cc4nc(-c5cccc(C(=O)N6CCC6)c5)ccc4cn3)cc21` [Compound 484], the half-maximal inhibitory concentration (IC50) fell in the range of 0.1 to 0.5 µM.

Take `O=C(NCc1cc2nc(-c3cncc(C4CC4)n3)ccc2cn1)c1cnc2c(c1)[C@@](F)(C(F)F)CCO2` [Compound 243]: the IC50 lay in the range of 0.1 to 0.5 µM.

For the molecule `C[C@@]1(C#N)COCc2ccc(C(=O)NCc3cc4cc(-c5ccnc(N6CCC6)n5)cnc4cn3)cc21` [Compound 377], the concentration for half-maximal inhibition (IC50) was under 0.1 µM.

In the case of `CNC(=O)c1cccc(-c2ccc3cnc(CNC(=O)c4ccc5c(c4)[C@](C)(C#N)COC5)cc3n2)c1` [Compound 483], the IC50 fell in the range of 0.1 to 0.5 µM.

`COC(=O)c1cccc(/C=C/c2ccnc(CNC(=O)c3ccc4c(c3)[C@](C)(C#N)COC4)c2)c1` [Compound 26] returned a concentration for half-maximal inhibition (IC50) of under 0.1 µM.

For `C[C@@]1(C#N)COCc2ccc(C(=O)NCc3cc4nc(-c5ccc(C(F)F)cc5)ccc4cn3)cc21` [Compound 519], the IC50 was under 0.1 µM.

As for `Cn1cc2c(n1)CCN(c1ccc3cnc(CNC(=O)c4ccc5c(c4)[C@](C)(C#N)COC5)cc3n1)C2` [Compound 455], the IC50 is 0.1 to 0.5 µM.

Turning to `C[C@@]1(C#N)COCc2ccc(C(=O)NCc3cc4nc(-c5ccnc(N6CCOCC6)n5)ccc4cn3)cc21` [Compound 416], the concentration for half-maximal inhibition (IC50) was under 0.1 µM.
